According to paper PMC4767141, “Discovery of Potent, Orally Bioavailable, Small-Molecule Inhibitors of WNT Signaling from a Cell-Based Pathway Screen” (Journal of Medicinal Chemistry, 2015):
Read-outs that look alike come from different tables or passages of the source.

Assays:
[1] = molecular target: T1, LYN (Homo sapiens, UniProt P07948); experiment: Millipore kinase panel; format: biochemical; conditions: ATP at Km, read-out: % Control
T1 construct: purchased Millipore KinaseProfiler (kinases); Cerep (receptors and ion channels)

[2] = molecular target: T2, MST1 (Homo sapiens, UniProt Q13043); experiment: Millipore kinase panel; format: biochemical; conditions: read-out: % Control
T2 construct: purchased Millipore KinaseProfiler (kinases); Cerep (receptors and ion channels)

[3] = Clint determination; format: in vitro ADME; conditions: mouse, microsomes, pH 7.4, mouse microsomes, read-out: Clint (μL/min/mg) Mouse
[4] = molecular target: T3, DRAK1 (Homo sapiens, UniProt Q9UEE5); experiment: Millipore kinase panel; format: biochemical; conditions: read-out: % Control
T3 construct: purchased Millipore KinaseProfiler (kinases); Cerep (receptors and ion channels)

[5] = Clint determination; format: in vitro ADME; conditions: human, microsomes, pH 7.4, human microsomes, read-out: Clint (μL/min/mg) Human
[6] = molecular target: T4, AURKC (Homo sapiens, UniProt Q9UQB9); experiment: Millipore kinase panel; format: biochemical; conditions: read-out: % Control
T4 construct: purchased Millipore KinaseProfiler (kinases); Cerep (receptors and ion channels)

[7] = molecular target: T5, PKBGAMMA (Homo sapiens, UniProt Q9Y243); experiment: Millipore kinase panel; format: biochemical; conditions: read-out: % Control
T5 construct: purchased Millipore KinaseProfiler (kinases); Cerep (receptors and ion channels)

[8] = molecular target: T6, EGFR(T790M,L858R) (Homo sapiens, UniProt P00533, L858R/T790M); experiment: Millipore kinase panel; format: biochemical; conditions: read-out: % Control
T6 construct: purchased Millipore KinaseProfiler (kinases); Cerep (receptors and ion channels)

[9] = molecular target: T7, CKIT(D816V) (Homo sapiens, UniProt P10721, D816V); experiment: Millipore kinase panel; format: biochemical; conditions: read-out: % Control
T7 construct: purchased Millipore KinaseProfiler (kinases); Cerep (receptors and ion channels)

[10] = molecular target: T8, TIE2(Y897S) (Homo sapiens, UniProt Q02763, Y897S); experiment: Millipore kinase panel; format: biochemical; conditions: read-out: % Control
T8 construct: purchased Millipore KinaseProfiler (kinases); Cerep (receptors and ion channels)

[11] = molecular target: T9, V1a (h) (Homo sapiens, UniProt P37288); experiment: CEREP binding panel; conditions: agonist radioligand, read-out: % Inhibition of Control Specific Binding
T9 construct: purchased Millipore KinaseProfiler (kinases); Cerep (receptors and ion channels)

[12] = test system: TCF1 or TCF4; experiment: Endogenous TCF1 and TCF4 levels in COLO205-F1756 clone 4; format: cell-based, human; conditions: COLO205-F1756 clone 4, 350 nM
Text: Supplementary Figure S2. Levels of TCF1 and TCF4 in response to treatment of COLO205-
F1756 clone 4 (an APC-mutant human colorectal cancer cell line engineered to express a
(1 picture or pasted object on this page, not shown here)

[13] = molecular target: T10, TSSK2 (Homo sapiens, UniProt Q96PF2); experiment: Millipore kinase panel; format: biochemical; conditions: read-out: % Control
T10 construct: purchased Millipore KinaseProfiler (kinases); Cerep (receptors and ion channels)

[14] = molecular target: T11, SYK (Homo sapiens, UniProt P43405); experiment: Millipore kinase panel; format: biochemical; conditions: read-out: % Control
T11 construct: purchased Millipore KinaseProfiler (kinases); Cerep (receptors and ion channels)

[15] = molecular target: T12, FGFR1(V561M) (Homo sapiens, UniProt P11362, V561M); experiment: Millipore kinase panel; format: biochemical; conditions: read-out: % Control
T12 construct: purchased Millipore KinaseProfiler (kinases); Cerep (receptors and ion channels)

[16] = molecular target: T13, ABL(Y253F) (Homo sapiens, UniProt P00519, Y253F); experiment: Millipore kinase panel; format: biochemical; conditions: read-out: % Control
T13 construct: purchased Millipore KinaseProfiler (kinases); Cerep (receptors and ion channels)

[17] = molecular target: T14, EGFR(T790M) (Homo sapiens, UniProt P00533, T790M); experiment: Millipore kinase panel; format: biochemical; conditions: read-out: % Control
T14 construct: purchased Millipore KinaseProfiler (kinases); Cerep (receptors and ion channels)

[18] = molecular target: T15, AURKA (Homo sapiens, UniProt O14965); experiment: Millipore kinase panel; format: biochemical; conditions: read-out: % Control
T15 construct: purchased Millipore KinaseProfiler (kinases); Cerep (receptors and ion channels)
T15 sequence (O14965 whole entry): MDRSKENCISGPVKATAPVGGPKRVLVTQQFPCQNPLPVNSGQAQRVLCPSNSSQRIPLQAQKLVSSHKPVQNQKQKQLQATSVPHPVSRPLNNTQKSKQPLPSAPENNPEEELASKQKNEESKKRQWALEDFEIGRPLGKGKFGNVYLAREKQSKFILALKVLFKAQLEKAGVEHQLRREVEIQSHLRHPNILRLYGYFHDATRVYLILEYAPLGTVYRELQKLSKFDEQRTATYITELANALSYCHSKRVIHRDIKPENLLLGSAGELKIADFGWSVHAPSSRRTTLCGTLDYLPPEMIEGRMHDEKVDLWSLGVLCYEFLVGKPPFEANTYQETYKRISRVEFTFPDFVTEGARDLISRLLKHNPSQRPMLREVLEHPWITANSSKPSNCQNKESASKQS

T1 sequence (P07948 whole entry): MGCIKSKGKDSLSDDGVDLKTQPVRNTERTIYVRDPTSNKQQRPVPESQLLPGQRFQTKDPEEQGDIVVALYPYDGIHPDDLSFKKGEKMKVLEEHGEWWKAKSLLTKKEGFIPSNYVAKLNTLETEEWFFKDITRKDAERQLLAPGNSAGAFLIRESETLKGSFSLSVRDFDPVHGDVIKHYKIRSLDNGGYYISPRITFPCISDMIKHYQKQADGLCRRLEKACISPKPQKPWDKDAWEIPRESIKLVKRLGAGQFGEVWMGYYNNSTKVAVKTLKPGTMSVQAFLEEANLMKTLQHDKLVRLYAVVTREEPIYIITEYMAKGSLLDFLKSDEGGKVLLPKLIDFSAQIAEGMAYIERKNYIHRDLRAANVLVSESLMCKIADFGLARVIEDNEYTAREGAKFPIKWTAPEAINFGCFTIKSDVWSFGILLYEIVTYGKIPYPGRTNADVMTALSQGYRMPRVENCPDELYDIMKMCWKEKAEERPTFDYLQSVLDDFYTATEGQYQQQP
T12 sequence (P11362 22-822 V561M): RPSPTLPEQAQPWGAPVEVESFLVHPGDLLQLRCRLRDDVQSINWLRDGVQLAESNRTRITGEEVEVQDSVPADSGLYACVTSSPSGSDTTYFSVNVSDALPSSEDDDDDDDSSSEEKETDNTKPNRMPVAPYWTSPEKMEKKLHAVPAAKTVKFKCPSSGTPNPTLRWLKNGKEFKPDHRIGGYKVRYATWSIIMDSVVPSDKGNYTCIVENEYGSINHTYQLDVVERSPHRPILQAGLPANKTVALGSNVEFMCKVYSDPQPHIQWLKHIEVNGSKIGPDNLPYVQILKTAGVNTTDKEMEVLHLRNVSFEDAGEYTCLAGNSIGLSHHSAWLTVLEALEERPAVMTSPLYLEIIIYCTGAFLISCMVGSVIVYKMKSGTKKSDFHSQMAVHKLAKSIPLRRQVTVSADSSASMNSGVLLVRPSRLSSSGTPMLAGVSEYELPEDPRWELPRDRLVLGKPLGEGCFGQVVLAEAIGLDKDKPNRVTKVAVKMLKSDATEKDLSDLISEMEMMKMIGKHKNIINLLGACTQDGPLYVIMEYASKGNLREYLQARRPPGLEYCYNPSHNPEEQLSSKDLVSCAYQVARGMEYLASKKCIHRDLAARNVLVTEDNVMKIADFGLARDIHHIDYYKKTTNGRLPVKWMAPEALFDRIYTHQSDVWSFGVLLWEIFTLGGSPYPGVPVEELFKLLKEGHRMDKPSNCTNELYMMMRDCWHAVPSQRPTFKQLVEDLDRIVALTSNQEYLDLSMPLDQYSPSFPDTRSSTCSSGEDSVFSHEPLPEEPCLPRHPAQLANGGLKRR
T10 sequence (Q96PF2 whole entry): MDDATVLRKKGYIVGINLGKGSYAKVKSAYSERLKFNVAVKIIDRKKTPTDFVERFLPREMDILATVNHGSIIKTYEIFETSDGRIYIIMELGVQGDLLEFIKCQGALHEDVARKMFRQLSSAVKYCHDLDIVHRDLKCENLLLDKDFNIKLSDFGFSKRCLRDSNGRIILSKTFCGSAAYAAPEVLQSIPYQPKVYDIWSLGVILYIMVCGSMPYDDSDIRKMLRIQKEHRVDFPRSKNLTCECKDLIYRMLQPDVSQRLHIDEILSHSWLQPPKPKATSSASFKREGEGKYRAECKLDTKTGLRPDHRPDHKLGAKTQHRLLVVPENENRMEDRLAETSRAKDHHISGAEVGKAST
T5 sequence (Q9Y243 whole entry): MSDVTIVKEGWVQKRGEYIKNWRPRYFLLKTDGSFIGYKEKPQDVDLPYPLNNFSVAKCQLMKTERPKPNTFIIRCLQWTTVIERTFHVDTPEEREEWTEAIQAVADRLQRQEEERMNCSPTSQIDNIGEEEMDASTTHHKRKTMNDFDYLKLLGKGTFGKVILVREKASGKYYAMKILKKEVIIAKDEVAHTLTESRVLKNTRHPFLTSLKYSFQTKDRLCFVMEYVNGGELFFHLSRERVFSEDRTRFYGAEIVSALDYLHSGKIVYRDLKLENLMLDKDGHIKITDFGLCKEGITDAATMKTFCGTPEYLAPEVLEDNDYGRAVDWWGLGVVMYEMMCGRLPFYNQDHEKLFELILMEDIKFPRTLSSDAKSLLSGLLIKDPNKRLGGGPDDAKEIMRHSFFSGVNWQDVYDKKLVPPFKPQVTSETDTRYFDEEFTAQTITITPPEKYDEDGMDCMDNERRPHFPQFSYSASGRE
T9 sequence (P37288 whole entry): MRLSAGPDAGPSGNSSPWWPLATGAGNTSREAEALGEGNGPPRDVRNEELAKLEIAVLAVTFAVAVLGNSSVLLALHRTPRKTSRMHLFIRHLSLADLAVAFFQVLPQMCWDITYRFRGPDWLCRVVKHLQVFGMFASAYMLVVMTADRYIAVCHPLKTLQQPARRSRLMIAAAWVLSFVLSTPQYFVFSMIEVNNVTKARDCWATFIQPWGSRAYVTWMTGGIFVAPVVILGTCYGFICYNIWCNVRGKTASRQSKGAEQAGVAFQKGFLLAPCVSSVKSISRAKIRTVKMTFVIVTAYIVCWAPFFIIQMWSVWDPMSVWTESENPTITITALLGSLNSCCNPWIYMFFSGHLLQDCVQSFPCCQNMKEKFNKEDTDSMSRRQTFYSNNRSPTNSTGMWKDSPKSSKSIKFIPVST
T7 sequence (P10721 26-976 D816V): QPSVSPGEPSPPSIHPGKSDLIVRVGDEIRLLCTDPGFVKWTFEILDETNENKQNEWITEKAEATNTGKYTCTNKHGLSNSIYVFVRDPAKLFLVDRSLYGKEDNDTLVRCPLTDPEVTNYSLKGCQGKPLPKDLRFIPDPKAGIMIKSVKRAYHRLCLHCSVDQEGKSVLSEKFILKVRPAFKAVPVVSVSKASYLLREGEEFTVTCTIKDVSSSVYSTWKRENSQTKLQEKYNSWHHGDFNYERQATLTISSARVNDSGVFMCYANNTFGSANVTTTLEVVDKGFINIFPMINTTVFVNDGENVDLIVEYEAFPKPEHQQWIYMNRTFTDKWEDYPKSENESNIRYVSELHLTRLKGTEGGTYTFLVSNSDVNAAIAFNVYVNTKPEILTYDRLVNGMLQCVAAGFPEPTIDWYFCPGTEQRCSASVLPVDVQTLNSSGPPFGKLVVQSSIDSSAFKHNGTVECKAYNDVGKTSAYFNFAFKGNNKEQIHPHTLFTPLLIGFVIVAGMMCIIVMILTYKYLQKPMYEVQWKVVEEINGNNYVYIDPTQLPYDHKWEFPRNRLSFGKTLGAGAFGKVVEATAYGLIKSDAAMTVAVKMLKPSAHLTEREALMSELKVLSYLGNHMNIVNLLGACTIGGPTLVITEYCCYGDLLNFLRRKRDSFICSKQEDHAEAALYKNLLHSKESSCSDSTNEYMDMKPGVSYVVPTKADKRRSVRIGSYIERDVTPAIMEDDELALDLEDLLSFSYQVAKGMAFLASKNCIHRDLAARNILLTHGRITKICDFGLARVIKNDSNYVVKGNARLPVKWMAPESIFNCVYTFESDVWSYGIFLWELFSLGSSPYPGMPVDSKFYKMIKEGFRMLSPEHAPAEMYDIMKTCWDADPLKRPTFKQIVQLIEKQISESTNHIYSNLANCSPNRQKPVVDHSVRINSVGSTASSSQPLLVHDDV
T2 sequence (Q13043 whole entry): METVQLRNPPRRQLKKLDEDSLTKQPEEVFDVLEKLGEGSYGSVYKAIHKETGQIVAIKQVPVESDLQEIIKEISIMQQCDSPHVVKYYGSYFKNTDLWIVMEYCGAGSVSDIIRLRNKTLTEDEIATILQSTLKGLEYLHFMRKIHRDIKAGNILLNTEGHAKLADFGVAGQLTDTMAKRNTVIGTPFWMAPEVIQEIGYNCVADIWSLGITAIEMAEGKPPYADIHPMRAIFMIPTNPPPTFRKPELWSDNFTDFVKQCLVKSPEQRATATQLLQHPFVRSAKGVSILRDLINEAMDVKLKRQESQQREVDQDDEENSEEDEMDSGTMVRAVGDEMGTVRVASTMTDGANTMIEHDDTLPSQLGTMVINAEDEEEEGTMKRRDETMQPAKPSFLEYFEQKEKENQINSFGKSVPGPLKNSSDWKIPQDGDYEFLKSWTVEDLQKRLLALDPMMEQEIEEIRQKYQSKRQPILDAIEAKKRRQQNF
T4 sequence (Q9UQB9 whole entry): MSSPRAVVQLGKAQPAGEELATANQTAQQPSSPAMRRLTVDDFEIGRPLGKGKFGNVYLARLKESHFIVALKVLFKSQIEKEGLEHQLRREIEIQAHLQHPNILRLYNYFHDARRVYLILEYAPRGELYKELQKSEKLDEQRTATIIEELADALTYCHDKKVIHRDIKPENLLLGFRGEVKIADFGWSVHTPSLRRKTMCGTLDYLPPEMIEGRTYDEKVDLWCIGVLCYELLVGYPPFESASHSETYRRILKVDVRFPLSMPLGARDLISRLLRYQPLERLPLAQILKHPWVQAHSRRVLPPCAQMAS

Row | Structure (SMILES) | remaining activity at 1 µM [1] [%] | remaining activity at 1 µM [2] [%] | microsomal CLint at 1 μM [3] [µL/min/mg] | remaining activity at 1 µM [4] [%] | microsomal CLint at 1 μM [5] [µL/min/mg] | remaining activity at 1 µM [6] [%] | remaining activity at 1 µM [7] [%] | remaining activity at 1 µM [8] [%] | remaining activity at 1 µM [9] [%] | remaining activity at 1 µM [10] [%] | inhibition at 10 µM [11] [%] | effect on endogenous levels of TCF1 or TCF4 [12] | remaining activity at 1 µM [13] [%] | remaining activity at 1 µM [14] [%] | remaining activity at 1 µM [15] [%] | remaining activity at 1 µM [16] [%] | remaining activity at 1 µM [17] [%] | remaining activity at 1 µM [18] [%]
1 | O=C1NCCC12CCN(c1c(Cl)cncc1-c1ccc(N3CCOCC3)cc1)CC2 [Compound 44, 8-(3-Chloro-5-(4-morpholin-4-ylphenyl)pyridin-4-yl)-2,8-diazaspiro[4.5]decan-1-one] | 31 | 14 | 290 | 4 | 115 |  |  |  |  |  |  |  |  |  |  |  |  | 
2 | Cn1cc(-c2ccc(-c3cncc(Cl)c3N3CCC4(CCNC4=O)CC3)cc2)cn1 [Compound 74, 8-(3-Chloro-5-(4-(1-methyl-1H-pyrazol-4-yl)phenyl)pyridin-4-yl)-2,8-diazaspiro[4.5]decan-1-one] |  |  |  |  |  | -10 | -5 | -4 | 7 | 4 | -7 | did not affect endogenous levels of TCF1 or TCF4 | -1 | 5 | -8 | -11 | 0 | 6
